Reference: US20060228395A1, “Vitamin E phosphate/phosphatidylcholine liposomes to protect from or ameliorate cell damage” (priority 2005, published 2006)

Legend:
[1] = test system: male albino mice; test: Allyl alcohol-induced liver injury in male albino mice (SGPT); type: in vivo; details: allyl alcohol alone, single intraperitoneal dose 50 mg/kg, 4 hours; ± SEM
Protocol: Influence of vitamin E phosphate/phosphatidylcholine liposomes (see example 1) on Allyl alcohol-induced liver injury was evaluated in male albino mice.

[2] = test system: Liver cells; test: Incorporation of labeled choline into phosphatidylcholine (PC biosynthesis) by liver cells with iron; type: cell-based; details: SEM
Text: The study of effects oil liver cells was also considered based on evaluation of effect on increase in the incorporation of labeled choline into phosphatidylcholine (phosphatidylcholine biosynthesis) by liver cells. Vitamin E phosphate/phosphatidylcholine produced greater beneficial effects than either vitamin E phosphate or phosphatidylcholine.

[3] = test system: isolated liver cells (1000×g cell fraction); test: Iron-dependent liver cell lipid peroxidation (LCLP); type: cell-based; details: SEM
[4] = test system: cultured liver cells; test: Reversal of ethanol damage in cultured liver cells (phosphatidylcholine biosynthesis); type: cell-based; details: 96 h, ± SEM
Protocol: The use of vitamin E phosphate/phosphatidylcholine to effect reversal of damage from ethanol on liver cells was then studied. The cultured liver cells were incubated with 25 mM or 50 mM ethanol for 96 hours, at which time there is significant reduction in liver cell function (phosphatidylcholine biosynthesis). The effect of adding vitamin E phosphate/phosphatidylcholine after 72 hours was studied, and 24 hours later (96 hours after initial exposure to ethanol) values were obtained.

[5] = test system: Liver cells; test: Phosphatidylcholine formation in liver cells dysfunctional due to ethanol exposure; type: cell-based
Protocol: Liver cells which had become dysfunctional due to exposure to ethanol were incubated 24 hours with vitamin E phosphate/phosphatidylcholine liposomes. The pmoles of phosphatidylcholine formed per minute/mg protein was then measured with the following results: […]

[6] = 1 mM iron plus addition: PC 100 μM, VEP 50 μm, or combination VEP/PC

`C=CCO` [Allyl alcohol] was tested, and the SGPT [1] was 330 ± 15 % of control.
In the case of `Cc1c(C)c2c(c(C)c1OP(=O)(O)O)CCC(C)(CCCC(C)CCCC(C)CCCC(C)C)O2` (centres unmarked) [VEP, vitamin E phosphate], the PC biosynthesis [2, 6] is reported as 145 ± 4 % control and the “LCLP (liver cell lipid peroxidation)” value [3, 6] is reported as 167 ± 3 % control.
In the case of `CCO` [ethanol], the “liver cell function (phosphatidylcholine biosynthesis)” value ([4]; 25 mM ethanol alone) is reported as 38 ± 2 % control, the “liver cell function (phosphatidylcholine biosynthesis)” value ([4]; 50 mM ethanol alone) is reported as 22 ± 1 % control and the phosphatidylcholine formed ([5]; cells exposed to ethanol (control 75)) is reported as 25 pmoles per minute/mg protein. The phosphatidylcholine formed ([5]; cells exposed to ethanol, then incubated 24 hours in water) was 27 pmoles per minute/mg protein.
With `[Fe]` [iron] the PC biosynthesis ([2]; 1 mM iron alone) was 254 ± 9 % control and the “LCLP (liver cell lipid peroxidation)” value ([3]; 1 mM iron alone) was 357 ± 12 % control.
phosphatidylcholine [PC] was tested, and the PC biosynthesis [2, 6] was 167 ± 4 % control and the “LCLP (liver cell lipid peroxidation)” value [3, 6] was 281 ± 4 % control.
